Like-named read-outs stand apart in the source and are kept apart here.
Assay: in vitro
Format: in vitro ADME
Settings: human
Procedure, shortened: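 Caco-2 monolayers cultured 19 days on inserts (TEER >600 […]); bidirectional A-to-B and B-to-A transport at 37° C over 90 min, samples quantified by LC/MS/MS. Papp, efflux ratio and recovery calculated; ER >2 flags potential efflux substrates.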

[1] = Caco-2 monolayer, apical to basolateral, 90-minute incubation, read-out: Papp, A-B
[2] = Caco-2 monolayer, basolateral to apical, 90-minute incubation, read-out: Papp, B-A
[3] = Caco-2 monolayer, ER>2 indicates potential efflux transporter substrate, read-out: ER (efflux ratio)

CC(=O)Nc1ncnn2c([C@]3(C#N)O[C@H](COC(=O)CC4CCCCC4)[C@@H](OC(=O)[C@@H](N)C(C)C)[C@H]3O)ccc12 [Compound 348, (2R,3S,4R,5R)-5-(4-acetamidopyrrolo[2,1-f][1,2,4]triazin-7-yl)-5-cyano-2-((2-cyclohexylacetoxy)methyl)-4-hydroxytetrahydrofuran-3-yl L-valinate]
Papp A→B at 90 min (Caco-2): 0.43 ×10⁻⁶ cm/s
Papp B→A at 90 min (Caco-2): 13 ×10⁻⁶ cm/s
efflux ratio at 90 min (Caco-2): 30

CC(C)C(=O)Nc1ncnn2c([C@]3(C#N)O[C@H](COC(=O)CC4CCCCC4)[C@@H](OC(=O)[C@@H](N)C(C)C)[C@H]3O)ccc12 [Compound 349, (2R,3S,4R,5R)-5-cyano-2-((2-cyclohexylacetoxy)methyl)-4-hydroxy-5-(4-isobutyramidopyrrolo[2,1-f][1,2,4]triazin-7-yl)tetrahydrofuran-3-yl L-valinate]
Papp A→B at 90 min (Caco-2): 1.9 ×10⁻⁶ cm/s
Papp B→A at 90 min (Caco-2): 10 ×10⁻⁶ cm/s
efflux ratio at 90 min (Caco-2): 5.6

CCCC(=O)Nc1ncnn2c([C@]3(C#N)O[C@H](COC(=O)CC4CCCCC4)[C@@H](OC(=O)[C@@H](N)C(C)C)[C@H]3O)ccc12 [Compound 350, (2R,3S,4R,5R)-5-(4-butyramidopyrrolo[2,1-f][1,2,4]triazin-7-yl)-5-cyano-2-((2-cyclohexylacetoxy)methyl)-4-hydroxytetrahydrofuran-3-yl L-valinate]
Papp A→B at 90 min (Caco-2): 1.9 ×10⁻⁶ cm/s
Papp B→A at 90 min (Caco-2): 6.9 ×10⁻⁶ cm/s
efflux ratio at 90 min (Caco-2): 4.3

CC(C)[C@H](N)C(=O)O[C@H]1[C@@H](OC(=O)[C@@H](N)C(C)C)[C@](C#N)(c2ccc3c(N)ncnn23)O[C@@H]1COC(=O)Cc1ccccc1 [Compound 351, (2R,3R,4R,5R)-2-(4-aminopyrrolo[2,1-f][1,2,4]triazin-7-yl)-2-cyano-5-((2-phenylacetoxy)methyl)tetrahydrofuran-3,4-diyl (2S,2'S)-bis(2-amino-3-methylbutanoate)]
Papp A→B at 90 min [1]: 0.17 ×10⁻⁶ cm/s
Papp B→A at 90 min [2]: 0.92 ×10⁻⁶ cm/s
efflux ratio at 90 min [3]: 5.5

N#C[C@@]1(c2ccc3c(NC(=O)[C@@H](N)Cc4ccc(F)cc4)ncnn23)O[C@H](COC(=O)CC2(N)CCCCC2)[C@@H](O)[C@H]1O [Compound 352, ((2R,3S,4R,5R)-5-(4-((S)-2-amino-3-(4-fluorophenyl)propanamido)pyrrolo[2,1-f][1,2,4]triazin-7-yl)-5-cyano-3,4-dihydroxytetrahydrofuran-2-yl)methyl 2-(1-aminocyclohexyl)acetate]
Papp A→B at 90 min (Caco-2): 0.25 ×10⁻⁶ cm/s
Papp B→A at 90 min (Caco-2): 1.4 ×10⁻⁶ cm/s
efflux ratio at 90 min (Caco-2): 5.7

CCCC(=O)Nc1ncnn2c([C@]3(C#N)O[C@H](COC(=O)CC4(N)CCCCC4)[C@@H](O)[C@H]3O)ccc12 [Compound 354, ((2R,3S,4R,5R)-5-(4-butyramidopyrrolo[2,1-f][1,2,4]triazin-7-yl)-5-cyano-3,4-dihydroxytetrahydrofuran-2-yl)methyl 2-(1-aminocyclohexyl)acetate]
Papp A→B at 90 min (Caco-2): 10 ×10⁻⁶ cm/s
Papp B→A at 90 min (Caco-2): 3 ×10⁻⁶ cm/s
efflux ratio at 90 min (Caco-2): 0.29

CC(=O)OCOC(=O)Nc1ncnn2c([C@]3(C#N)O[C@H](COC(=O)Cc4ccccc4)[C@@H](OC(=O)[C@@H](N)C(C)C)[C@H]3O)ccc12 [Compound 355, (2R,3S,4R,5R)-5-(4-(((acetoxymethoxy)carbonyl)amino)pyrrolo[2,1-f][1,2,4]triazin-7-yl)-5-cyano-4-hydroxy-2-((2-phenylacetoxy)methyl)tetrahydrofuran-3-yl L-valinate]
Papp A→B at 90 min [1]: 1.5 ×10⁻⁶ cm/s
Papp B→A at 90 min [2]: 0.49 ×10⁻⁶ cm/s
efflux ratio at 90 min [3]: 0.33

CC(C)[C@H](N)C(=O)O[C@H]1[C@@H](OC(=O)[C@@H](N)C(C)C)[C@](C#N)(c2ccc3c(N)ncnn23)O[C@@H]1COC(=O)CC1CCCCC1 [Compound 356, (2R,3R,4R,5R)-2-(4-aminopyrrolo[2,1-f][1,2,4]triazin-7-yl)-2-cyano-5-((2-cyclohexylacetoxy)methyl)tetrahydrofuran-3,4-diyl (2S,2'S)-bis(2-amino-3-methylbutanoate)]
Papp A→B at 90 min (Caco-2): 0.6 ×10⁻⁶ cm/s
Papp B→A at 90 min (Caco-2): 3.6 ×10⁻⁶ cm/s
efflux ratio at 90 min (Caco-2): 6

Source: patent US12102648B2, “Orally-bioavailable nucleoside analogs” (priority 2021, dated 2024)
